Assay results reported in ChEMBL document CHEMBL1250507, “Novel indolylmaleimide acts as GSK-3beta inhibitor in human neural progenitor cells” (Bioorg Med Chem, 2010).
pIC50: −log10 of the molar value. Calls of active or inactive are those of the source. No cut-off for these calls is given here.

Tested on: not listed separately
Experiment: Antiproliferative activity against human ReNcell VM cells assessed as growth doubling time at 3 uM measured every 24 hrs
Assay type: functional
Details: not given

| Compound | Time |
| --- | --- |
| Cc1[nH]c2ccccc2c1C1=C(NCCc2ccc(F)cc2)C(=O)N(C)C1=O | 26.5 h |
| Cn1cc(C2=C(c3ccc(Cl)cc3Cl)C(=O)NC2=O)c2ccccc21 [SB-216763] | 24.4 h |

Tested on: ReNcell VM
Experiment: Cytotoxicity against human ReNcell VM cells assessed as cell viability at 3 uM after 72 hrs
Assay type: functional, cell-based
Details: not given

| Compound | Activity |
| --- | --- |
| Cn1cc(C2=C(c3ccc(Cl)cc3Cl)C(=O)NC2=O)c2ccccc21 [SB-216763] | Not toxic |

Molecular target: T1, Glycogen synthase kinase-3 beta (Homo sapiens, UniProt P49841)
Experiment: Inhibition of GSK3-beta after 30 mins by luminescence assay
Details: not given
Target sequence in this assay (P49841 whole entry): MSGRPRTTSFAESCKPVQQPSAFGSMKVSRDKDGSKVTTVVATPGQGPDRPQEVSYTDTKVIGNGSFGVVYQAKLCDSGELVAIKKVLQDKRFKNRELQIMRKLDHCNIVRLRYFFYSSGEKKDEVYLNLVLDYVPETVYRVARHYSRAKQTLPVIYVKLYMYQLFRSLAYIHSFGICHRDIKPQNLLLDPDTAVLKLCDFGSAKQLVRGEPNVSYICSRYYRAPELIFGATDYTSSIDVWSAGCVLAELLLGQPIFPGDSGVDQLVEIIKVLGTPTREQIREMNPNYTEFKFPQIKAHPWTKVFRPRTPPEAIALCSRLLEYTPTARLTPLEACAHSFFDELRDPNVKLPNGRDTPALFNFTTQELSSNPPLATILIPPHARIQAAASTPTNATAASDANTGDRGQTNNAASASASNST

| Compound | pIC50 |
| --- | --- |
| Cc1[nH]c2ccccc2c1C1=C(NCCc2ccc(F)cc2)C(=O)N(C)C1=O | 7.28 |

Tested on: ReNcell VM
Experiment: Antiproliferative activity against human ReNcell VM cells assessed as reduction of cell proliferation at 3 uM after 72 hrs
Assay type: functional, cell-based
Details: not given

| Compound | Activity |
| --- | --- |
| Cc1[nH]c2ccccc2c1C1=C(NCCc2ccc(F)cc2)C(=O)N(C)C1=O | Active |
| Cn1cc(C2=C(c3ccc(Cl)cc3Cl)C(=O)NC2=O)c2ccccc21 [SB-216763] | Active |

Tested on: not listed separately
Experiment: Induction of neuronal differentiation in human ReNcell VM cells assessed as beta3-tubulin positive cells after 3 days by FACS analysis relative to control
Assay type: functional
Details: not given

| Compound | Activity |
| --- | --- |
| Cc1[nH]c2ccccc2c1C1=C(NCCc2ccc(F)cc2)C(=O)N(C)C1=O | 3.7% |
| Cn1cc(C2=C(c3ccc(Cl)cc3Cl)C(=O)NC2=O)c2ccccc21 [SB-216763] | 3.2% |

Molecular target: T1, Glycogen synthase kinase-3 beta
Experiment: not given
Details: ReNcell VM, at 3 µM
Target sequence in this assay (P49841 whole entry, looked up): as the sequence (P49841 whole entry) above

| Compound | inhibition |
| --- | --- |
| CCOC(=O)C1=C(c2c(C)[nH]c3ccccc23)C(=O)N(C)C1=O | inactive |
| CCCCNC1=C(c2c(C)[nH]c3ccccc23)C(=O)N(CCCC)C1=O | inactive |
| Cc1[nH]c2ccccc2c1C1=C(C(=O)N2CCN(c3ccccc3)CC2)C(=O)N(C)C1=O | inactive |
| CCCCNC(=O)C1=C(c2c(C)[nH]c3ccccc23)C(=O)N(C)C1=O | inactive |
| Cc1[nH]c2ccccc2c1C1=C(NCCc2ccc(Cl)cc2)C(=O)N(C)C1=O | inactive |
| CCCCNC(=O)C1=C(c2c(C)[nH]c3ccccc23)C(=O)N(CCCC)C1=O | inactive |
| Cc1[nH]c2ccccc2c1C1=C(NCCc2ccc(F)cc2)C(=O)N(C)C1=O | 27% |
| Cc1[nH]c2ccccc2c1C1=C(N2CCN(c3ccccc3)CC2)C(=O)N(C)C1=O | inactive |
| CN1C(=O)C(NCCc2ccc(F)cc2)=C(c2c[nH]c3ccccc23)C1=O | inactive |
| Cc1[nH]c2ccccc2c1C1=C(N2CCOCC2)C(=O)N(C)C1=O | inactive |
| CN1C(=O)C(NCCc2ccc(F)cc2)=C(c2c[nH]c3ccc(F)cc23)C1=O | inactive |
| Cc1[nH]c2ccccc2c1C1=C(NCCc2c[nH]c3ccccc23)C(=O)N(C)C1=O | inactive |
| Cc1[nH]c2ccccc2c1C1=C(N2CCCCC2)C(=O)N(C)C1=O | inactive |
| Cc1[nH]c2ccccc2c1C1=C(C(=O)N2CCCCC2)C(=O)N(C)C1=O | inactive |
| COc1ccc(CCNC2=C(c3c(C)[nH]c4ccccc34)C(=O)N(C)C2=O)cc1 | inactive |
| CCCCOC(=O)C1=C(c2c(C)[nH]c3ccccc23)C(=O)N(C)C1=O | inactive |
| Cc1[nH]c2ccccc2c1C1=C(NCCc2ccccc2)C(=O)N(C)C1=O | inactive |
| CCCCNC1=C(c2c(C)[nH]c3ccccc23)C(=O)N(C)C1=O | inactive |
| COc1ccc2[nH]cc(C3=C(NCCc4ccc(F)cc4)C(=O)N(C)C3=O)c2c1 | inactive |
| Cc1[nH]c2ccccc2c1C1=C(NCCc2ccc(O)cc2)C(=O)N(C)C1=O | inactive |
| Cn1cc(C2=C(c3ccc(Cl)cc3Cl)C(=O)NC2=O)c2ccccc21 [SB-216763] | 50% |
| Cc1[nH]c2ccccc2c1C1=C(C(=O)N2CCOCC2)C(=O)N(C)C1=O | inactive |
| Cc1[nH]c2ccccc2c1C1=C(NCCc2ccc(F)c(F)c2)C(=O)N(C)C1=O | inactive |

Molecular target: T1, Glycogen synthase kinase-3 beta
Experiment: not given
Details: ReNcell VM, 3 uM
Target sequence in this assay (P49841 whole entry, looked up): as the sequence (P49841 whole entry) above

| Compound | residual activity |
| --- | --- |
| Cc1[nH]c2ccccc2c1C1=C(NCCc2ccc(F)cc2)C(=O)N(C)C1=O | 27% |
| Cn1cc(C2=C(c3ccc(Cl)cc3Cl)C(=O)NC2=O)c2ccccc21 [SB-216763] | 22% |

Molecular target: T1, Glycogen synthase kinase-3 beta
Experiment: not given
Details: ReNcell VM, 3 uM
Remark: another data set of the same source
Target sequence in this assay (P49841 whole entry, looked up): as the sequence (P49841 whole entry) above

| Compound | inhibition |
| --- | --- |
| Cn1cc(C2=C(c3ccc(Cl)cc3Cl)C(=O)NC2=O)c2ccccc21 [SB-216763] | 55% |

Molecular target: T1, Glycogen synthase kinase-3 beta
Experiment: not given
Details: ReNcell VM, 3 uM
Remark: another data set of the same source
Target sequence in this assay (P49841 whole entry, looked up): as the sequence (P49841 whole entry) above

| Compound | inhibition |
| --- | --- |
| Cc1[nH]c2ccccc2c1C1=C(NCCc2ccc(F)cc2)C(=O)N(C)C1=O | Active |
| Cn1cc(C2=C(c3ccc(Cl)cc3Cl)C(=O)NC2=O)c2ccccc21 [SB-216763] | inactive |

Molecular target: T1, Glycogen synthase kinase-3 beta
Experiment: Inhibition of GSK-3-beta-mediated Wnt signaling in human ReNcell VM cells assessed as increase in accumulation of beta-catenin at 1 uM after 2 hrs by ELISA relative to control
Details: not given
Target sequence in this assay (P49841 whole entry, looked up): as the sequence (P49841 whole entry) above

| Compound | inhibition |
| --- | --- |
| O=C1Cc2c([nH]c3ccc(Br)cc23)-c2ccccc2N1 | 30% |
